Data published in patent US20030092695A1, “Metal salts of 3-methyl-chromane or thiochromane derivatives” (priority 1999, published 2003).
Converted amounts (≈) assume the structure as drawn.

Experiments:
[1] = system: increase in uterus weight by stimulus with estradiol; assay: Anti-estrogenic activity via oral administration (inhibition of estradiol-stimulated uterus weight increase); assay type: in vivo; conditions: ovariectomized ICR mice, 17β-estradiol-benzoate 0.1 μg/day s.c. for 3 days, 10 mg/kg p.o., once a day, in 5% arabic gum
Description: Oral anti-estrogenic activity in vivo of the test compound was determined according to the method described hereinafter.
In this experiment, the test compound or the control compound was suspended in 5% arabic gum solution and orally administered for 3 days, once a day. After 24 hours from the last administration, the test animal was sacrificed and uterus was removed and weighed.

[2] = Solubility test in FaSSIF or water, shaken at 37° C., filtrate measured by HPLC
Description: The degree of improvement in solubility was determined by measuring the solubility of the test compound as follows.
To 1 mg of each compound was added 2 ml of FaSSIF (artificial intestinal juice, bile) or water, which was then shaken at 37° C. After 1, 2 and 20 hours, 200 μm of sample was taken and filtered. The concentration of the filtrate was measured by HPLC and the results are described in the following Table 2.

[3] = FaSSIF, 37 °C, thermodynamic from solid

Row | Compound | Inhibition (%) of the increase in uterus weight by estradiol [1] | solubility at 1 h [2, 3] | solubility at 2 h [2, 3] | solubility at 20 h [2, 3] | Solubility in water (in words) ([2]; water as the solvent)
1 | C[C@@]1(c2ccc(O)cc2)CSc2cc(O)ccc2[C@@H]1CCCCCCCCC(CCCC(F)(F)C(F)(F)F)C(=O)[O-].[Na+] (mixture of isomers) [Example 1, Sodium (3′RS,4′RS)-10-[7-hydroxy-3-(4-hydroxyphenyl)-3-methylthiochroman-4-yl]-2-(4,4,5,5,5-pentafluoropentyl)decanoate] | 74% | – | – | – | –
2 | CC1(c2ccc(O)cc2)CSc2cc(O)ccc2C1CCCCCCCCC(CCCC(F)(F)C(F)(F)F)C(=O)O (stereo not drawn) [(3′RS,4′RS)-10-[7-Hydroxy-3-(4-hydroxyphenyl)-3-methylthiochroman-4-yl]-2-(4,4,5,5,5-pentafluoropentyl)decanoic Acid] | 79% | – | – | – | –
3 | C[C@]12CC[C@@H]3c4ccc(O)cc4C[C@@H](CCCCCCCCC[S+]([O-])CCCC(F)(F)C(F)(F)F)[C@H]3[C@@H]1CC[C@@H]2O (stereo partly shown) [ICI182,780] | 69% | 0.365 µg/mL (≈ 0.602 µM) | 0.474 µg/mL (≈ 0.781 µM) | 1.7 µg/mL (≈ 2.8 µM) | can hardly be solved in water
